Results on seven molecules are retold here after ChEMBL document CHEMBL2203181, “Microwave-assisted synthesis, molecular docking and antitubercular activity of 1,2,3,4-tetrahydropyrimidine-5-carbonitrile derivatives” (2012).

Type in all cases: functional
What all share (design): scale not given: the % may be the effect or the level left

For assay [1], the system named is Mycobacterium tuberculosis. Nature of the assay: Antitubercular activity against streptomycin, isoniazid, rifampicin,ethambutol-resistant Mycobacterium tuberculosis clinical isolate assessed as reduction in RLU at 500 ug/mL after 72 hrs by luciferase reporter phage assay.
In assay [2] the test system is Mycobacterium tuberculosis. The assay can be described thus: Antitubercular activity against streptomycin, isoniazid, rifampicin,ethambutol-resistant Mycobacterium tuberculosis clinical isolate assessed as reduction in RLU at 100 ug/mL after 72 hrs by luciferase reporter phage assay.
Assay [3] relates to Mycobacterium tuberculosis. The assay can be described thus: Antitubercular activity against streptomycin, isoniazid, rifampicin,ethambutol-resistant Mycobacterium tuberculosis clinical isolate assessed as reduction in RLU at 0.5 ug/mL after 72 hrs by luciferase reporter phage assay. For orientation: In a reporter assay the amount or activity of a reporter protein is the signal.

Assay [4] has as its system Mycobacterium tuberculosis. Nature of the assay: Antitubercular activity against streptomycin, isoniazid, rifampicin,ethambutol-resistant Mycobacterium tuberculosis clinical isolate assessed as reduction in RLU at 2 ug/mL after 72 hrs by luciferase reporter phage assay.

In the case of `COc1ccc(-c2[nH]c(=O)[nH]c(=O)c2C#N)cc1O`, the values for the Activity in assay [1] and in assay [2] were 33.49% and 25.47%, respectively.

As for `N#Cc1c(-c2cccc(Cl)c2)[nH]c(=O)[nH]c1=O`, the Activity in assay [1] is 52.77%; in assay [2], 50.1%.

`N#Cc1c(-c2ccc(F)cc2)[nH]c(=O)[nH]c1=O`: the Activity in assay [1] amounted to 47.86%; in assay [2], 38.38%.

Consider `NNC(=O)c1ccncc1` [ISONIAZID], for which the Activity in assay [3] came out at 89.6%.

As to `CO[C@H]1/C=C/O[C@@]2(C)Oc3c(C)c(O)c4c(O)c(c(/C=N/N5CCN(C)CC5)c(O)c4c3C2=O)NC(=O)/C(C)=C\C=C\[C@H](C)[C@H](O)[C@@H](C)[C@@H](O)[C@@H](C)[C@H](OC(C)=O)[C@@H]1C` [RIFAMPIN], the Activity in assay [4] amounted to 29.19%.

With `N#Cc1c(-c2ccc(Cl)cc2)[nH]c(=S)[nH]c1=O`, the Activity in assay [1] came to 66.65%; in assay [2], 61.35%.

Take `N#Cc1c(-c2ccc(Br)cc2)[nH]c(=S)[nH]c1=O`: the results for the Activity in assay [1] and in assay [2] were 74.91% and 38.03%, respectively.
